According to paper PMC3715147 (Journal of natural products, 2013):

How the values were obtained:
HIV-1 NL4-3 = test: Anti-HIV assay: HIV-1 NL4-3 replication in MT4 cells; format: cell-based; details: Human immunodeficiency virus 1, NL43, Lymphocyte, read-out: anti-HIV EC90
HIV-1 R5 viruses = details: cited from earlier work
X4 or dual tropic HIV-1 = details: peripheral blood mononuclear cells (PBMCs); cited from earlier work

Compound | EC90 (HIV-1 NL4-3) [nM] | inhibition of HIV-1 R5 viruses (in words) (HIV-1 R5 viruses) | activity against X4 or dual tropic HIV-1 replication (in words) (X4 or dual tropic HIV-1)
CCCCCCCCCC(=O)O[C@@]12[C@H](OC(=O)c3ccccc3)[C@@H](C)[C@@]3(O)[C@@H](C=C(CO)C[C@]4(O)C(=O)C(C)=C[C@@H]34)[C@@H]1C2(C)C [Compound 1, stellerarin] | < 1 |  | 
CCCCCCCC(=O)O[C@]12[C@H]([C@@H]3C=C(CO)C[C@]4(O)C(=O)C(C)=C[C@H]4[C@@]3(O)C[C@H]1OC(=O)c1ccccc1)C2(C)C [Compound 2, 12-O-benzoylphorbol 13-octanoate] | < 1 |  | 
CCCCC/C=C\CCC(=O)O[C@@]12[C@H](OC(=O)c3ccccc3)[C@@H](C)[C@@]3(O)[C@@H](C=C(CO)C[C@]4(O)C(=O)C(C)=C[C@@H]34)[C@@H]1C2(C)C [Compound 3, stelleracin A] | < 1 |  | 
C=C(C)[C@@]12C[C@@H](COC(=O)c3ccccc3)[C@@]34OC5(O[C@@H]1[C@@H]3[C@@H]1O[C@]1(CO)[C@@H](O)[C@@]1(O)[C@H]4[C@H]([C@H](C)[C@@H]1OC(=O)c1ccccc1)[C@H](C)CCCCCC[C@H]5O)O2 [gnidimacrin] |  | potent inhibitor | essentially inactive
